Data from publication PMC6940354, “Comparative Assessment of the New PDE7 Inhibitor – GRMS-55 and Lisofylline in Animal Models of Immune-Related Disorders: A PK/PD Modeling Approach” (Pharmaceutical Research, 2020).
Read-outs that look alike come from different tables or passages of the source.

Assays:
[1] = Pharmacokinetics in female Lewis rats; type: in vivo, rat; settings: for fraction of the dose absorbed (F): calculated from Eq. 4
Procedure: The same vehicles as these in pharmacodynamic studies for each compound and route of administration were used. Rats were implanted with catheters into the jugular vein and after a two-day period they were administered with the investigated compounds by the listed above routes of administration. […] Samples were subsequently centrifuged at 3000 × g for 10 min. Plasma was stored at −80°C until analysis.
A detailed description of these methods has been provided in the supplementary materials.
Firstly, the concentration-time data collected for each individual compound from one of the investigated rat strains (Wistar or Lewis) were subjected to a non-compartmental analysis (NCA). Subsequently, pharmacokinetic models were developed for each investigated compound and strain of rat. One- and two- compartment models with linear or non-linear elimination were tested. […] The final models were chosen based on the goodness-of-fit criteria, such as Akaike Information Criterion (AIC), Schwarz Bayesian Criterion (SBC), weighted sum of squared residuals (WSSR), a visual inspection of fitting, and precision of estimated parameters expressed as coefficients of variation % (CVs%). NCA analysis was performed in Phoenix WinNonlin v. 7.0 (Pharsight Corp., a Certara Company, Princeton, New Jersey). Pharmacokinetic model parameters were estimated in ADAPT 5 software (BMSR, Los Angeles, CA) using the weighted least squares algorithm. Fraction of the dose absorbed (F) following an extravascular (EV) administration was calculated according to the Eq. 4:4 F=AUC0−tEV·DIV/AUC0−tIV·DEV where AUC0-t is the area under concentration versus time curve from 0 to the last measured point and D is dose.
The route of (±)-LSF administration was selected based on the results of our recent study, where SC route of administration was recognized as the most preferential for this compound ([20]). The concentration-time data for each of the investigated compounds were simultaneously fitted to obtain a single set of pharmacokinetic parameters.
The remaining symbols and parameters have been explained and defined in Fig. 2 and Table II.
Then, the samples were extracted with 1 mL of dichloromethane for 20 min using a VXR Vibrax shaker (IKA, Germany). Subsequently, all tubes were centrifuged (10 000×g, 8 min) using EBA 12 R centrifuge (Hettich, Germany). Organic layers were collected and transferred to clear propylene tubes and evaporated in water bath under a gentle stream of nitrogen at 37°C. Dry residues were then dissolved in 100 μL of mobile phase and subjected to the HPLC analysis. The HPLC system (LaChrom Elite, Merck-Hitachi, Germany) consisted of an L-2130 pump, an L-2200 autosampler, and an L-2420 UV-VIS detector. EZChrome Elite v. 3.2 (Merck-Hitachi, Germany) computer program was used for data acquisition and integration. The separation of GRMS-55 was performed using a LiChrospher 100 RP-18 (250×4 mm) column with a particle size of 5 μm protected with a LiChroCART (4×4 mm, RP-18) guard column (Merck, Germany). […] The separation of both investigated compounds was performed at ambient temperature. […] In turn, the retention time of GRMS-55 was 9.2 min. and that of its IS was 5.3 min.

[2] = system: collagen-induced arthritis (CIA) in female Lewis rats; assay: Histological evaluation of ankle cross-sections from CIA rats; type: in vivo, rat; settings: multiple administration, compared to vehicle control
Procedure: At a day 0 of the experiment animals were subcutaneously (SC) injected at the base of the tail with 200 μL of the emulsion using a 27 gauge × 5/8″ needle and Hamilton syringe. At day 7 after the initial immunization, a booster injection with 100 μL of emulsion was performed. Ninety % of rats developed symptoms of disease (paw swelling >150% of day 0) at day 20 of the experiment. At this day, diseased animals were randomly divided into five groups (n = 6). […] One investigated group received (±)-LSF dissolved in saline at an SC dose of 80 mg kg^−1 once daily. The corresponding control groups were administered with appropriate volumes of vehicles IP or SC. At day 40 animals were sacrificed. Hind paws of rats were taken and immersed into 4% buffered formalin solution for a subsequent histological analysis. Blood samples were collected and allowed to clot for 20 min and then centrifuged at 2000 x g for 15 min. Serum samples were collected and frozen at -80°C.
The morphological studies were performed with the imaging CellSens Dimention (Olympus) software. Osteoarthritis histopathology was assessed based on the symptoms associated with synovial inflammation, chondropathy, and subchondral osteoarthritis. Synovitis index estimation involved synovial inflammation, synovial lining thickness, dense of cellularity, and presence of perivascular lymphoid aggregates, where normal synovium (score 0) is defined as thin linning with sparse cellular distribution and no/few inflammatory cells, mild and moderate synovial inflammation (score 1 to 2) indicate thickness of linning with dense cellularity with inflammatory cells, and severe inflammation (score 3) means hypervascular synovitis containing lymphoid aggregates. Two aspects of chondropathy were graded: surface integrity and chondrocyte yielding score 0 for normal morphology to score 3 for chondral lesion with chondrocyte hypercellurarity and/or cloning, and complete cartilage surface integrity loss. Subchondral plate thickening, bone trabeculae deterioration, bone marrow lesion (bone pseudocysts - cavitary lesion formation) associated with fibrovascular replacement of marrow spaces were accounted for subchondral osteoarthritis with grading score from 0 to 3 in severe lesion. The sample preparation procedure for histological evaluation is described in the supplementary materials.
The hind paws were cut about 0.5 cm above the rat joint. Then the joints were fixed in 4% buffered formalin for one week, decalcified, dehydrated in ethanol solutions of increasing concentrations, and embedded in the paraffin blocks. Subsequently, paws were serially cut at 6-μm thickness using a rotational microtome Leica RM 2145 type and stained with Masson's Trichrome. Digital images were taken using a computerized digital camera (Olympus UC90, Olympus).

[3] = rat, plasma, other: GRMS-55 IV and IP, rolipram IP, female Lewis rats, read-out: half-life calculated as ln2·V1/Clt (elimination half-life)

Row | fraction of the dose absorbed (F) ([1]; female Lewis rats, SC administration) | volume of distribution, times lower in female Lewis rats compared to male Wistar rats ([1]; female Lewis vs male Wistar rats) | half-life ([1]; rat, plasma, 80 mg kg^-1, female Lewis rats, SC administration, flip-flop pharmacokinetics, read-out: plasma terminal half-life) | Vd ([1]; rat, plasma, other: IV and SC, female Lewis rats, (±)-LSF IV 40 and SC 80 mg kg^−1, read-out: VLSF, volume of distribution of (±)-LSF, Estimate (CV%)) | k el ([1]; rat, plasma, other: IV and SC, female Lewis rats, (±)-LSF IV and SC, read-out: kd, overall parent elimination rate constant, Estimate (CV%) (converted)) | fraction of the dose absorbed (F) ([1]; female Lewis rats, IP administration) | Structure (SMILES) | chondritis / articular cartilage, histological score (result in words) [2] | subchondral osteoarthritis, histological score (result in words) [2] | synovitis / synovial inflammation, histological score (result in words) [2] | half-life [1, 3] | Vd/F ([1]; female, Lewis, rat, plasma, ip, 10 mg/kg, read-out: V(ROL)/F, volume of distribution divided by fraction absorbed, Estimate (CV%))
1 | 95% | 3.3 times | 23 min | 0.37 L/kg | 0.00353 s⁻¹ | – | CC(O)CCCCn1c(=O)c2c(ncn2C)n(C)c1=O (racemic) [(±)-LSF, lisofylline] | attenuated | failed to significantly diminish | significant alleviation | – | –
2 | – | – | – | – | – | 23% | Cn1c(=O)c2c(nc(NCCc3ccccc3)n2CCCC(=O)NN=Cc2ccccc2O)n(C)c1=O [GRMS-55, 4-(1,3-Dimethyl-2,6-dioxo-8-(phenethylamino)-2,3,6,7-tetrahydro-1H-purin-7-yl)-N′-(2-hydroxybenzylidene)butanehydrazide] | attenuated | attenuated | significant alleviation | 21 min | –
3 | – | – | – | – | – | – | COc1ccc(C2CNC(=O)C2)cc1OC1CCCC1 (stereo not drawn) [Rolipram, rolipram] | significant amelioration | significant amelioration | significant amelioration | 30 min | 1.02 L/kg
